Laboratory results reported in the NIST ThermoML archive (doi:10.1021/je060271a).
± gives the expanded uncertainty stated by the source.

Conditions: 283.15 K, Liquid, Vibrating tube method

`CCCCCCCC(=O)OCC(COC(=O)CCCCCCC)(COC(=O)CCCCCCC)COC(=O)CCCCCCC` [pentaerythritol tetraoctanoate] showed a mass density (11928 kPa) of 976.9 ± 1.2 kg/m3, a mass density (11974 kPa) of 977.1 ± 1.2 kg/m3 and a mass density (12022 kPa) of 977 ± 1.2 kg/m3. It also gave a mass density (12078 kPa) of 977 ± 1.2 kg/m3, a mass density (12126 kPa) of 977.1 ± 1.2 kg/m3 and a mass density (12174 kPa) of 977.1 ± 1.2 kg/m3. It also gave a mass density (12234 kPa) of 977.1 ± 1.2 kg/m3, a mass density (12283 kPa) of 977.2 ± 1.2 kg/m3 and a mass density (12334 kPa) of 977.2 ± 1.2 kg/m3. For the same compound, the mass density (12394 kPa) was 977.1 ± 1.2 kg/m3, the mass density (12445 kPa) was 977.3 ± 1.2 kg/m3 and the mass density (12496 kPa) was 977.2 ± 1.2 kg/m3. The mass density (12548 kPa) was 977.3 ± 1.2 kg/m3, the mass density (12611 kPa) was 977.3 ± 1.2 kg/m3 and the mass density (12662 kPa) was 977.3 ± 1.2 kg/m3. The mass density (12708 kPa) was 977.5 ± 1.2 kg/m3, the mass density (12785 kPa) was 977.5 ± 1.2 kg/m3 and the mass density (12834 kPa) was 977.5 ± 1.2 kg/m3. For the same compound, the mass density (12903 kPa) was 977.4 ± 1.2 kg/m3, the mass density (12955 kPa) was 977.6 ± 1.2 kg/m3 and the mass density (12988 kPa) was 977.5 ± 1.2 kg/m3. For the same compound, the mass density (13021 kPa) was 977.6 ± 1.2 kg/m3, the mass density (13054 kPa) was 977.6 ± 1.2 kg/m3 and the mass density (13095 kPa) was 977.6 ± 1.2 kg/m3. The mass density (13128 kPa) was 977.6 ± 1.2 kg/m3, the mass density (13170 kPa) was 977.5 ± 1.2 kg/m3 and the mass density (13204 kPa) was 977.8 ± 1.2 kg/m3. For the same compound, the mass density (13238 kPa) was 977.7 ± 1.2 kg/m3, the mass density (13272 kPa) was 977.7 ± 1.2 kg/m3 and the mass density (13314 kPa) was 977.8 ± 1.2 kg/m3. For the same compound, the mass density (13350 kPa) was 977.7 ± 1.2 kg/m3, the mass density (13385 kPa) was 977.8 ± 1.2 kg/m3 and the mass density (13427 kPa) was 977.8 ± 1.2 kg/m3. It also gave a mass density (13463 kPa) of 977.8 ± 1.2 kg/m3, a mass density (13506 kPa) of 977.9 ± 1.2 kg/m3 and a mass density (13542 kPa) of 977.9 ± 1.2 kg/m3. For the same compound, the mass density (13579 kPa) was 977.9 ± 1.2 kg/m3, the mass density (13615 kPa) was 978 ± 1.2 kg/m3 and the mass density (13660 kPa) was 977.9 ± 1.2 kg/m3. For the same compound, the mass density (13697 kPa) was 977.8 ± 1.2 kg/m3, the mass density (13734 kPa) was 977.9 ± 1.2 kg/m3 and the mass density (13779 kPa) was 978 ± 1.2 kg/m3. The mass density (13816 kPa) was 978.1 ± 1.2 kg/m3, the mass density (13863 kPa) was 978 ± 1.2 kg/m3 and the mass density (13902 kPa) was 978 ± 1.2 kg/m3. For the same compound, the mass density (13942 kPa) was 978.1 ± 1.2 kg/m3, the mass density (13982 kPa) was 978.1 ± 1.2 kg/m3 and the mass density (14031 kPa) was 978.1 ± 1.2 kg/m3. The mass density (14074 kPa) was 978.2 ± 1.2 kg/m3, the mass density (14118 kPa) was 978.2 ± 1.2 kg/m3 and the mass density (14166 kPa) was 978.1 ± 1.2 kg/m3. For the same compound, the mass density (14190 kPa) was 978.3 ± 1.2 kg/m3, the mass density (14210 kPa) was 978.2 ± 1.2 kg/m3 and the mass density (14230 kPa) was 978.3 ± 1.2 kg/m3. For the same compound, the mass density (14254 kPa) was 978.2 ± 1.2 kg/m3, the mass density (14274 kPa) was 978.3 ± 1.2 kg/m3 and the mass density (14298 kPa) was 978.3 ± 1.2 kg/m3. It also gave a mass density (14319 kPa) of 978.3 ± 1.2 kg/m3, a mass density (14340 kPa) of 978.4 ± 1.2 kg/m3 and a mass density (14360 kPa) of 978.3 ± 1.2 kg/m3. The mass density (14384 kPa) was 978.3 ± 1.2 kg/m3, the mass density (14405 kPa) was 978.4 ± 1.2 kg/m3 and the mass density (14426 kPa) was 978.4 ± 1.2 kg/m3. It also gave a mass density (14446 kPa) of 978.4 ± 1.2 kg/m3, a mass density (14472 kPa) of 978.2 ± 1.2 kg/m3 and a mass density (14492 kPa) of 978.3 ± 1.2 kg/m3. It also gave a mass density (14514 kPa) of 978.3 ± 1.2 kg/m3, a mass density (14539 kPa) of 978.5 ± 1.2 kg/m3 and a mass density (14560 kPa) of 978.4 ± 1.2 kg/m3. It also gave a mass density (14582 kPa) of 978.4 ± 1.2 kg/m3, a mass density (14608 kPa) of 978.5 ± 1.2 kg/m3 and a mass density (14625 kPa) of 978.5 ± 1.2 kg/m3. For the same compound, the mass density (14650 kPa) was 978.4 ± 1.2 kg/m3, the mass density (14671 kPa) was 978.4 ± 1.2 kg/m3 and the mass density (14693 kPa) was 978.6 ± 1.2 kg/m3. It also gave a mass density (14718 kPa) of 978.4 ± 1.2 kg/m3, a mass density (14740 kPa) of 978.5 ± 1.2 kg/m3 and a mass density (14765 kPa) of 978.6 ± 1.2 kg/m3. It also gave a mass density (14787 kPa) of 978.6 ± 1.2 kg/m3, a mass density (14809 kPa) of 978.6 ± 1.2 kg/m3 and a mass density (14835 kPa) of 978.4 ± 1.2 kg/m3. It also gave a mass density (14857 kPa) of 978.6 ± 1.2 kg/m3, a mass density (14879 kPa) of 978.7 ± 1.2 kg/m3 and a mass density (14906 kPa) of 978.6 ± 1.2 kg/m3. For the same compound, the mass density (14928 kPa) was 978.7 ± 1.2 kg/m3, the mass density (14950 kPa) was 978.5 ± 1.2 kg/m3 and the mass density (14976 kPa) was 978.6 ± 1.2 kg/m3. For the same compound, the mass density (14999 kPa) was 978.6 ± 1.2 kg/m3, the mass density (15022 kPa) was 978.7 ± 1.2 kg/m3 and the mass density (15044 kPa) was 978.7 ± 1.2 kg/m3. It also gave a mass density (15071 kPa) of 978.7 ± 1.2 kg/m3, a mass density (15093 kPa) of 978.7 ± 1.2 kg/m3 and a mass density (15116 kPa) of 978.5 ± 1.2 kg/m3. For the same compound, the mass density (15143 kPa) was 978.8 ± 1.2 kg/m3, the mass density (15166 kPa) was 978.7 ± 1.2 kg/m3 and the mass density (15189 kPa) was 978.8 ± 1.2 kg/m3. For the same compound, the mass density (15217 kPa) was 978.7 ± 1.2 kg/m3, the mass density (15240 kPa) was 978.8 ± 1.2 kg/m3 and the mass density (15263 kPa) was 978.6 ± 1.2 kg/m3. The mass density (15291 kPa) was 978.9 ± 1.2 kg/m3, the mass density (15314 kPa) was 978.8 ± 1.2 kg/m3 and the mass density (15338 kPa) was 978.9 ± 1.2 kg/m3. The mass density (15366 kPa) was 978.7 ± 1.2 kg/m3, the mass density (15389 kPa) was 978.8 ± 1.2 kg/m3 and the mass density (15417 kPa) was 978.9 ± 1.2 kg/m3. It also gave a mass density (15441 kPa) of 978.9 ± 1.2 kg/m3, a mass density (15465 kPa) of 978.9 ± 1.2 kg/m3 and a mass density (15488 kPa) of 978.9 ± 1.2 kg/m3. It also gave a mass density (15517 kPa) of 979 ± 1.2 kg/m3, a mass density (15542 kPa) of 978.9 ± 1.2 kg/m3 and a mass density (15566 kPa) of 978.9 ± 1.2 kg/m3. For the same compound, the mass density (15595 kPa) was 978.9 ± 1.2 kg/m3, the mass density (15620 kPa) was 978.9 ± 1.2 kg/m3 and the mass density (15644 kPa) was 979 ± 1.2 kg/m3. The mass density (15673 kPa) was 979 ± 1.2 kg/m3, the mass density (15698 kPa) was 979 ± 1.2 kg/m3 and the mass density (15722 kPa) was 979 ± 1.2 kg/m3. For the same compound, the mass density (15752 kPa) was 979.1 ± 1.2 kg/m3, the mass density (15776 kPa) was 979.1 ± 1.2 kg/m3 and the mass density (15801 kPa) was 979.2 ± 1.2 kg/m3. For the same compound, the mass density (15831 kPa) was 979 ± 1.2 kg/m3, the mass density (15856 kPa) was 979.1 ± 1.2 kg/m3 and the mass density (15882 kPa) was 979.1 ± 1.2 kg/m3. It also gave a mass density (15912 kPa) of 979.2 ± 1.2 kg/m3, a mass density (15938 kPa) of 979.2 ± 1.2 kg/m3 and a mass density (15963 kPa) of 979.1 ± 1.2 kg/m3. For the same compound, the mass density (15994 kPa) was 979.2 ± 1.2 kg/m3, the mass density (16019 kPa) was 979.2 ± 1.2 kg/m3 and the mass density (16045 kPa) was 979.1 ± 1.2 kg/m3. It also gave a mass density (16076 kPa) of 979.2 ± 1.2 kg/m3, a mass density (16102 kPa) of 979.2 ± 1.2 kg/m3 and a mass density (16128 kPa) of 979.4 ± 1.2 kg/m3. For the same compound, the mass density (16159 kPa) was 979.2 ± 1.2 kg/m3, the mass density (16185 kPa) was 979.2 ± 1.2 kg/m3 and the mass density (16212 kPa) was 979.2 ± 1.2 kg/m3. It also gave a mass density (16238 kPa) of 979.4 ± 1.2 kg/m3, a mass density (16270 kPa) of 979.3 ± 1.2 kg/m3 and a mass density (16296 kPa) of 979.4 ± 1.2 kg/m3. For the same compound, the mass density (16328 kPa) was 979.4 ± 1.2 kg/m3, the mass density (16355 kPa) was 979.5 ± 1.2 kg/m3 and the mass density (16382 kPa) was 979.5 ± 1.2 kg/m3. The mass density (16409 kPa) was 979.4 ± 1.2 kg/m3, the mass density (16441 kPa) was 979.5 ± 1.2 kg/m3 and the mass density (16468 kPa) was 979.5 ± 1.2 kg/m3. For the same compound, the mass density (16501 kPa) was 979.4 ± 1.2 kg/m3, the mass density (16528 kPa) was 979.5 ± 1.2 kg/m3 and the mass density (16556 kPa) was 979.4 ± 1.2 kg/m3. It also gave a mass density (16591 kPa) of 979.4 ± 1.2 kg/m3.
